According to patent publication US12146168B2, “Human CGAS-DNA complex and encoded protein” (priority 2018, dated 2024):
Entries after “also recorded” stand apart in the source; their conditions may differ.

Columns and labels:
[1] = test system: V. cholerae; test: V. cholerae chemotaxis assay (overexpressed cGAMP synthases); assay type: cell-based, Vibrio cholerae; conditions: overexpression as MBP N-terminal fusion, arabinose induced
Description: V. cholerae strains were cultured at 37° C. on LB media (1% tryptone, 0.5% yeast extract, 0.5% NaCl w/v), stored at −80° C. in LB supplemented with 30% glycerol, and were all derivatives of streptomycin resistant C6706 dncV: Tn (to remove endogenous 3′3′ cGAMP synthesis) (Davies et al. (2012) Cell 149:358-370). Where appropriate, antibiotics and supplemented nutrients were used at the following concentrations: streptomycin (100 μg ml^−1), carbenicillin (100 μg ml^−1), and diaminopimelic acid (300 μg ml^−1). hcGAS (D157-F522) and mcGAS (P147-L507) were codon optimized for bacterial expression (Genscript and IDT respectively), and all cGAS enzymes and control genes were overexpressed from a custom plasmid pBAD24T, a conjugation-proficient version of pBAD24 that harbors an arabinose inducible promoter and a strong ribosomal binding site (Guzman et al. (1995) J Bacteriol 177:4121-4130) that was further modified to include a new multiple cloning site. All genes overexpressed in V. cholera were encoded as MBP N-terminal fusions except the MBP alone negative control vector (Table 5).
[…]. V. cholerae chemotaxis assays were performed as previously described (Davies et al. (2012) Cell 149:358-370). Briefly, chemotaxis medium (1% tryptone, 0.5% NaCl, 0.3% agar w/v) was prepared, autoclaved, and stored at 2x concentration; and chemotaxis plates were prepared 2-24 h prior to inoculation. 2x medium was melted, diluted to 1× with sterile water, and supplemented with 0.2% (w/v) arabinose. Deep-well plates (OmniTray w/Lid, Thermo Fisher) were poured at 40 ml/plate. Overnight, stationary phase cultures (16-24 h post inoculation) were diluted 10-fold with fresh LB, arrayed in a 96-well plate, then applied to the surface of a chemotaxis plate via pinning with a 96-pin, floating pin replicator (VP 408FH, V&P Scientific). Alternatively, 1 μl of diluted culture was applied to the surface of chemotaxis agar by pipetting. Chemotaxis plates were incubated at 30° C. for 16-24 h.
Chemotaxis was quantified by imaging plates at 16-24 h post inoculation and digitally measuring the area of motile bacteria using ImageJ (Schneider et al. (2012) Nat Methods 9:671-675). Chemotaxis area was normalized to MBP alone vector for each experiment for expression of “chemotaxis as a % of MBP”. Values were transformed into “chemotaxis repression” by calculating (chemotaxis as a % of MBP)-1, then normalizing this value to dncV. Chemotaxis repression was determined and used to simplify a direct relationship between cGAMP levels and plotted values.

[2] = test system: 45 bp double-stranded interferon stimulatory DNA; test: In vitro cGAS 2′3′ cGAMP synthesis assay; assay type: biochemical; conditions: for 2′3′ cGAMP synthesis: 45 bp DNA
Description: […]. Briefly, 1 μM cGAS (or other concentration as indicated) was incubated with a 45 bp double-stranded interferon stimulatory DNA (sense: 5′-[…]-3′, SEQ ID NO: 6; antisense: 5′-[…]-3′, SEQ ID NO: 7) (Stetson and Medzhitov (2006) Immunity 24:93-103) in the 20 μl reaction buffer containing 50 mM Tris-HCl pH 7.5, 35 mM KCl, 5 mM Mg(OAc)2, 1 mM DTT, 25 μM ATP, 25 μM GTP, and [α-^32P] ATP (˜1 μCi) at 37° C. for 30 min. Reactions were terminated by heating at 95° C. for 3 min, and subsequently incubated with 4 U of alkaline phosphatase (New England Biolabs) at 37° C. for 30 min to hydrolyze unreacted NTPs. One microliter of each reaction was spotted on a PEI-Cellulose F thin-layer chromatography plate (EMD Biosciences) developed with 1.5 M KH2PO4 (pH 3.8) as a running buffer. Radiolabeled products were detected by Typhoon Trio Variable Mode Imager system (GE Healthcare) and quantified with ImageQuant 5.2. […]. Briefly, ATP/GTP titrations (0, 5, 10, 25, 50, 100, 200, 400, 800, and 1000 μM) were performed in the presence of fixed cGAS (1 μM) and 45 bp dsDNA concentration (1.5 μM) in 10 μl of reaction buffer containing 50 mM Tris-HCl pH 7.5, 35 mM KCl, 5 mM Mg(OAc)2, 1 mM DTT, and [α-^32P] ATP (˜1 μCi) at 37° C. for 5 min. Reactions were terminated and analyzed using thin layer chromatography as indicated above. The ATP-dependent cGAS enzyme kinetics were plotted and fitted according to Michaelis-Menten substrate inhibition analysis in GraphPad Prism (version 7.0c).

[3] = test system: 17 bp DNA; test: In vitro cGAS 2′3′ cGAMP synthesis assay, DNA length specificity; assay type: biochemical
Description: […]. Briefly, 1 μM cGAS ([…], SEQ ID NO: 6; antisense: 5′-[…]-3′, SEQ ID NO: 7) (Stetson and Medzhitov (2006) Immunity 24:93-103) in the 20 μl reaction buffer containing 50 mM Tris-HCl pH 7.5, 35 mM KCl, 5 mM Mg(OAc)2, 1 mM DTT, 25 μM ATP, 25 μM GTP, and [α-^32P] ATP (˜1 μCi) at 37° C. for 30 min. Reactions were terminated by heating at 95° C. for 3 min, and subsequently incubated with 4 U of alkaline phosphatase (New England Biolabs) at 37° C. for 30 min to hydrolyze unreacted NTPs. One microliter of each reaction was spotted on a PEI-Cellulose F thin-layer chromatography plate (EMD Biosciences) developed with 1.5 M KH2PO4 (pH 3.8) as a running buffer. Radiolabeled products were detected by Typhoon Trio Variable Mode Imager system (GE Healthcare) and quantified with ImageQuant 5.2. […]. Briefly, ATP/GTP titrations (0, 5, 10, 25, 50, 100, 200, 400, 800, and 1000 μM) were performed in the presence of fixed cGAS (1 μM) and 45 bp dsDNA concentration (1.5 μM) in 10 μl of reaction buffer containing 50 mM Tris-HCl pH 7.5, 35 mM KCl, 5 mM Mg(OAc)2, 1 mM DTT, and [α-^32P] ATP (˜1 μCi) at 37° C. for 5 min. Reactions were terminated and analyzed using thin layer chromatography as indicated above. The ATP-dependent cGAS enzyme kinetics were plotted and fitted according to Michaelis-Menten substrate inhibition analysis in GraphPad Prism (version 7.0c).

[4] = test system: 45 bp dsDNA; test: In vitro cGAS-DNA complex formation, electrophoretic mobility shift analysis; assay type: binding; conditions: 45 bp DNA, gradient dialysis
Description: cGAS-DNA complexes were stably assembled using a method adapted from a nucleosome assembly gradient dialysis protocol (Lee and Narlikar (2001) Current protocols in molecular biology Chapter 21, Unit 21.26), and complex formation was measured by electrophoretic mobility shift analysis. Briefly, a concentration gradient of recombinant protein (0.2, 0.4, 2, 10 μM) was incubated with 45 bp dsDNA (2 μM) in a high-salt buffer containing 20 mM HEPES-NaOH pH 7.8, […], 1 mM DTT at 4° C. for 20 min. The reconstitution mixture was then transferred into 8-10 kDa molecular weight cut-off dialysis tubing (Spectrum Labs), and placed into a beaker of the high-salt buffer. The KCl concentration was reduced gradually by slowly replacing high-salt buffer with low-salt buffer (20 mM HEPES-KOH pH 7.5, 50 mM KCl, 1 mM DTT) with a peristaltic pump (Bio-Rad) at a rate of […] for 48 hr at 4° C. After gradient dialysis, reactions were supplemented to 5% glycerol, and subsequently separated on a 2% agarose gel in 0.5×TBE buffer at 4° C. Agarose gels were stained in a solution containing 10 μg ml^−1 ethidium bromide and visualized with a ChemiDoc™ MP Imaging System (Bio-Rad). Alternatively, where indicated in FIGS. 8A and 8C, cGAS-DNA complexes were assembled by incubating directly in reaction buffer containing 20 mM HEPES-NaOH pH 7.8, […], 1 mM DTT at 4° C. for 20 min and analyzed by electrophoretic mobility shift analysis as indicated above.

[5] = test system: V. cholerae genomic DNA; test: In vitro cGAS 2′3′ cGAMP synthesis assay with bacterial genomic DNA; assay type: biochemical, Vibrio cholerae; conditions: purified V. cholerae genomic DNA

Molecule	V. cholerae chemotaxis repression [1]	2′3′ cGAMP synthesis / enzyme activation in response to short DNA [3]	higher-order cGAS-DNA complex formation [4]	lower molecular weight minimal cGAS-DNA complex formation [4]	also measured
dncV	inhibited chemotaxis				
hcGAS	no loss of chemotaxis	remained inactive	preferentially formed higher-order oligomeric complexes		enhanced 2′3′ cGAMP synthesis versus wild type hcGAS [2]: > 15 fold; 2′3′ cGAMP synthesis ([2]; listed as hcGAS*): activity comparable to wildtype mcGAS; catalytic efficiency of 2′3′ cGAMP synthesis, fold less efficient than mcGAS ([2]; varying ATP concentration, Michaelis-Menten with substrate inhibition): ~20 fold
mcGAS	potently arrested chemotaxis	recognized both 45 bp and 17 bp DNA with near equal efficiency		formed two types of DNA complexes	2′3′ cGAMP synthesis in response to bacterial genomic DNA [5]: produces more 2′3′ cGAMP than hcGAS
hcGAS K187N/L195R (protein, UniProt Q8N884 1-522, looked up, variant K187N L195R) Cyclic GMP-AMP synthase: MQPWHGKAMQRASEAGATAPKASARNARGAPMDPTESPAAPEAALPKAGKFGPARKSGSRQKKSAPDTQERPPVRATGARAKKAPQRAQDTQPSDATSAPGAEGLEPPAAREPALSRAGSCRQRGARCSTKPRPPPGPWDVPSPGLPVSAPILVRRDAAPGASKLRAVLEKLKLSRDDISTAAGMVNGVVDHLLRRLKCDSAFRGVGLLNTGSYYEHVKISAPNEFDVMFKLEVPRIQLEEYSNTRAYYFVKFKRNPKENPLSQFLEGEILSASKMLSKFRKIIKEEINDIKDTDVIMKRKRGGSPAVTLLISEKISVDITLALESKSSWPASTQEGLRIQNWLSAKVRKQLRLKPFYLVPKHAKEGNGFQEETWRLSFSHIEKEILNNHGKSKTCCENKEEKCCRKDCLKLMKYLLEQLKERFKDKKHLDKFSSYHVKTAFFHVCTQNPQDSQWDRKDLGLCFDNCVTYFLQCLRTEKLENYFIPEFNLFSSNLIDKRSKEFLTKQIEYERNNEFPVFDEF	potently inhibited V. cholerae chemotaxis	full enzyme activation	unaffected	restored the ability of hcGAS to form a stable lower molecular weight protein-DNA complex	2′3′ cGAMP synthesis [2]: elevated 2′3′ cGAMP synthesis; also recorded: dramatically enhanced 2′3′ cGAMP synthesis; enzyme kinetics of 2′3′ cGAMP synthesis ([2]; varying ATP concentration, compared to mcGAS): nearly equal to mcGAS
K187N (protein, listed as Homo sapiens) MQPWHGKAMQRASEAGATAPKASARNARGAPMDPTESPAAPEAALPKAGKFGPARKSGSRQKKSAPDTQERPPVRATGARAKKAPQRAQDTQPSDATSAPGAEGLEPPAAREPALSRAGSCRQRGARCSTKPRPPPGPWDVPSPGLPVSAPILVRRDAAPGASKLRAVLEKLKLSRDDISTAAGMVNGVVDHLLLRLKCDSAFRGVGLLNTGSYYEHVKISAPNEFDVMFKLEVPRIQLEEYSNTRAYYFVKFKRNPKENPLSQFLEGEILSASKMLSKFRKIIKEEINDIKDTDVIMKRKRGGSPAVTLLISEKISVDITLALESKSSWPASTQEGLRIQNWLSAKVRKQLRLKPFYLVPKHAKEGNGFQEETWRLSFSHIEKEILNNHGKSKTCCENKEEKCCRKDCLKLMKYLLEQLKERFKDKKHLDKFSSYHVKTAFFHVCTQNPQDSQWDRKDLGLCFDNCVTYFLQCLRTEKLENYFIPEFNLFSSNLIDKRSKEFLTKQIEYERNNEFPVFDEF	Neither K187N nor L195R alone was sufficient to enhance hcGAS activity				
L195R (protein, listed as Homo sapiens) MQPWHGKAMQRASEAGATAPKASARNARGAPMDPTESPAAPEAALPKAGKFGPARKSGSRQKKSAPDTQERPPVRATGARAKKAPQRAQDTQPSDATSAPGAEGLEPPAAREPALSRAGSCRQRGARCSTKPRPPPGPWDVPSPGLPVSAPILVRRDAAPGASKLRAVLEKLKLSRDDISTAAGMVKGVVDHLLRRLKCDSAFRGVGLLNTGSYYEHVKISAPNEFDVMFKLEVPRIQLEEYSNTRAYYFVKFKRNPKENPLSQFLEGEILSASKMLSKFRKIIKEEINDIKDTDVIMKRKRGGSPAVTLLISEKISVDITLALESKSSWPASTQEGLRIQNWLSAKVRKQLRLKPFYLVPKHAKEGNGFQEETWRLSFSHIEKEILNNHGKSKTCCENKEEKCCRKDCLKLMKYLLEQLKERFKDKKHLDKFSSYHVKTAFFHVCTQNPQDSQWDRKDLGLCFDNCVTYFLQCLRTEKLENYFIPEFNLFSSNLIDKRSKEFLTKQIEYERNNEFPVFDEF	Neither K187N nor L195R alone was sufficient to enhance hcGAS activity				
